{
  "source": "paper PMC12406195",
  "about": "“Understanding the Modes of Action of β‑Ketoiminato Iridium(III) Complexes in Cancer Cells” (Inorganic Chemistry, 2025)",
  "key": {"[1]": {"tested_on": "MDA-MB-231 cells", "experiment": "Nuclei morphology assay (DAPI)", "format": "cell-based, human", "conditions": "MDA-MB-231, 48 h", "description": "The potential of compound 1 to trigger apoptosis in breast cancer cells was then studied. […] High-magnification insets (1–6) illustrate representative nuclear morphologies captured in the assay. Condensed, hyperintense nuclei with reduced area (e.g., images 1, 2 and 3), irregular nuclear blebs with discontinuous chromatin (e.g., images 3 and 4), and fragmented chromatin consistent with apoptotic bodies (e.g., images 5 and 6).\n7 Microscopic visualization of nuclear morphology changes in MDA-MB-231 breast cancer cells after 48 h exposure to compound 1 or CDDP. […] Images were acquired using a Leica DMI8 fluorescence microscope at 40× magnification. […]\nMDA-MB-231 cells at 4000 cells/well were seeded into a black clear -bottom 96-well plate using phenol-red free complete RMPI medium, and incubated for 48 h. […] Fluorescence images were obtained using a Zeiss Observer 7 inverted microscope at excitation at 488 nm and emission at 509 […]\nPlasmid DNA (200 ng, pBOS -H2B-GFP, BD Biosciences) was incubated overnight at room temperature with 1 or CDDP at concentrations between 100 and 400 μM in double -distilled H2O (20 μL total volume). […] The experiment was conducted in two biological replicates, and the band intensities were quantified and analyzed using ImageJ software. […]"}, "[2]": {"tested_on": "MDA-MB-231 cells", "experiment": "3D spheroid live/dead viability assay", "format": "cell-based, human", "conditions": "MDA-MB-231 spheroids, 100 μM, 48 h", "experimental": "3D cell cultures of cancer are good models for preclinical cancer research, as they are more representative of tumor microenvironments. MDA-MB-231 cells were maintained using the standard cell culture methods before seeding into round-bottom ultralow-attachment plates for 3D culture. Once the cells were seeded, the plate was centrifuged to assist with cell clumping at the bottom of the well and facilitate uniform spheroid formation. After 24 h, medium containing collagen I was added, and the cells were allowed to aggregate further. After sufficient growth of the spheroids (Day 4 – Figure ), the cells were treated with 100 μM of 1 for 48 h. The higher concentration was chosen, as it has been reported that spheroids require higher drug doses than two-dimensional (2D) experiments.\nLive and dead cells were then visualized using the LIVE/DEAD Viability/Cytotoxicity Kit by Invitrogen. […]\nAn equal volume of Annexin V and 7-AAD solution was added to 100 μL of the cell suspension, followed by a 20 min incubation at room temperature. The cells were then analyzed using the Muse Cell Analyzer (Merck Millipore). […]\nA mixture of 50 μL of cell suspension and 5 μL of Caspase 3/7 antibody (diluted 1:8 in PBS) was prepared and incubated at room temperature for 30 minutes. […] Apoptotic cells were analyzed using the Muse Cell Analyzer. […]"}},
  "data": [
    {"substance": "[Cp*Ir(C16H14NO)(PTA)](PF6) [Compound 1]", "values": [
      {"measurement": "Nuclear morphology", "setting": "[1]", "value": "typical apoptotic features like DNA fragmentation and condensation"},
      {"measurement": "Cytotoxicity in 3D spheroids (live/dead staining)", "setting": "[2]", "value": "significant cytotoxicity"}
    ]}
  ]
}
